Assay results taken from ChEMBL document CHEMBL5113460, “Discovery of dual inhibitors of topoisomerase I and Cyclooxygenase-2 for colon cancer therapy” (Eur J Med Chem, 2022).
Calls of active or inactive are those of the source. No cut-off for these calls is given here.

Assays:
HT-29 [1] = test: Induction of apoptosis in human HT-29 cells assessed as viable cells at 4 uM incubated for 24 hr by Annexin-V-FITC/PI staining based flow cytometry (Rvb= 83.5%); type: functional; conditions: read-out: Activity
RKO [2] = test: Induction of DNA damage in human RKO cells assessed as increase in tail length at 3 to 9 uM incubated for 24 hrs by Comet assay; type: functional, cell-based; conditions: dose 3-9 µM
[3] = AUC (0-t) in Sprague-Dawley rat at 100 mg/kg, po and measured upto 24 hrs by LC-MS analysis; type: ADME, organism-based; design: dose 100 mg/kg, time < 24 hrs, route po; conditions: in vivo
HT-29 [4] = test: Inhibition of NF-kappaB signalling pathway in human HT-29 cells assessed as decrease in phosphorylated NF-kappaB p65 level at 2 to 8 uM incubated for 24 hrs by Western blot analysis; type: cell-based; conditions: dose 2-8 µM
[5] = target: T1, DNA topoisomerase 1 (Homo sapiens) (UniProt P11387); test: Inhibition of topoisomerase 1 (unknown origin) assessed as relaxation of supercoiled plasmid pBR322 DNA at 1 uM incubated for 45 mins by ethidium bromide staining based agarose gel electrophoresis
T1 sequence (whole entry): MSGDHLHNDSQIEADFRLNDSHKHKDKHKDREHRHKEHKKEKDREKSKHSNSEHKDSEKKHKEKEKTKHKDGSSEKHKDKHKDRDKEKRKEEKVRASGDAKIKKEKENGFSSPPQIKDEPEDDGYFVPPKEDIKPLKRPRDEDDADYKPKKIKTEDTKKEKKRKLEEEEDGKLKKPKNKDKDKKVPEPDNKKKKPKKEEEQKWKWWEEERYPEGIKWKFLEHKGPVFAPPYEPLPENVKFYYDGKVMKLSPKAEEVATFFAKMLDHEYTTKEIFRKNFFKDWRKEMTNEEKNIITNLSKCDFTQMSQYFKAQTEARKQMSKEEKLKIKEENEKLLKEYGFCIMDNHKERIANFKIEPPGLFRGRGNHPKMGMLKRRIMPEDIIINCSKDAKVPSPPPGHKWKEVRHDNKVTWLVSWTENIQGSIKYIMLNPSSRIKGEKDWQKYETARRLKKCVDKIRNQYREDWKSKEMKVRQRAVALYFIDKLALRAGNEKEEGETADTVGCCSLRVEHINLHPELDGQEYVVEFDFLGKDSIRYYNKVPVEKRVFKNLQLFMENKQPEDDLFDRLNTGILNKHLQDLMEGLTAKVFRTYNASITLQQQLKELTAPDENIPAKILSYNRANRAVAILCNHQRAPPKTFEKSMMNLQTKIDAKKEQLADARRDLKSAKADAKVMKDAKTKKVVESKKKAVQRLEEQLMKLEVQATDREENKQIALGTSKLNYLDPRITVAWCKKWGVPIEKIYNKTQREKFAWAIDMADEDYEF

HT-29 [6] = test: Induction of apoptosis in human HT-29 cells assessed as reduction in mitochondrial membrane potential at 2 to 8 uM by TMRE staining based flow cytometry; type: functional, cell-based; conditions: dose 2-8 µM
[7] = Tmax in Sprague-Dawley rat at 100 mg/kg, po and measured upto 24 hrs by LC-MS analysis; type: ADME, organism-based; conditions: in vivo
RKO [8] = test: Antiproliferative activity against human RKO cells assessed as inhibition of cell proliferation incubated for 24 to 72 hrs by MTT assay; type: functional, cell-based; conditions: time 24-72 hrs, DDE = dose-dependent effect
HT-29 [9] = test: Antitumor activity against human HT-29 cells xenografted in BALB/c mouse assessed as inhibition of tumor growth at 15 mg/kg, ip bid and measured after 14 days by vernier caliper method; type: functional; conditions: HT-29, 336 h, time 14 day, read-out: TGI
RKO [10] = test: Induction of apoptosis in human RKO cells assessed as late apoptotic cells at 9 uM incubated for 24 hr by Annexin-V-FITC/PI staining based flow cytometry (Rvb= 4.49%); type: functional
HT-29 [11] = test: Induction of apoptosis in human HT-29 cells assessed as necrotic cells at 2 uM incubated for 24 hr by Annexin-V-FITC/PI staining based flow cytometry (Rvb=1.67%); type: functional
RKO [12] = test: Induction of apoptosis in human RKO cells assessed as increase in cleaved caspase-3 protein level at 3 to 9 uM incubated for 24 hrs by western blot analysis; type: functional, cell-based; conditions: dose 3-9 µM
HT-29 [13] = test: Induction of apoptosis in human HT-29 cells assessed as early apoptotic cells at 8 uM incubated for 24 hr by Annexin-V-FITC/PI staining based flow cytometry (Rvb=6.25%); type: functional
RKO [14] = test: Induction of apoptosis in human RKO cells assessed as early apoptotic cells at 9 uM incubated for 24 hr by Annexin-V-FITC/PI staining based flow cytometry (Rvb= 7.27%); type: functional
RKO [15] = test: Induction of apoptosis in human RKO cells assessed as increase in cleaved caspase-9 protein level at 3 to 9 uM incubated for 24 hrs by western blot analysis; type: functional, cell-based; conditions: dose 3-9 µM
[16] = Half life in Sprague-Dawley rat at 100 mg/kg, po and measured upto 24 hrs by LC-MS analysis; type: ADME, organism-based; conditions: in vivo
HT-29 [17] = test: Induction of apoptosis in human HT-29 cells assessed as necrotic cells at 4 uM incubated for 24 hr by Annexin-V-FITC/PI staining based flow cytometry (Rvb=1.67%); type: functional
HT-29 [18] = test: Antitumor activity against human HT-29 cells xenografted in BALB/c mouse assessed as inhibition of tumor microvessel density by measuring CD31-index at 30 mg/kg, ip bid for 14 days by immunohistochemical analysis; type: functional; conditions: time 14 day
RKO [19] = test: Induction of apoptosis in human RKO cells assessed as necrotic cells at 6 uM incubated for 24 hr by Annexin-V-FITC/PI staining based flow cytometry (Rvb= 0.30%); type: functional
HT-29 [20] = test: Induction of apoptosis in human HT-29 cells assessed as decrease in Bcl-2 protein level at 2 to 8 uM incubated for 24 hrs by western blot analysis; type: functional, cell-based; conditions: dose 2-8 µM
HT-29 [21] = test: Induction of apoptosis in human HT-29 cells assessed as increase in cleaved caspase-3 protein level at 2 to 8 uM incubated for 24 hrs by western blot analysis; type: functional, cell-based; conditions: dose 2-8 µM
[22] = Cmax in Sprague-Dawley rat at 100 mg/kg, po and measured upto 24 hrs by LC-MS analysis; type: ADME, organism-based; design: time < 24 hrs, dose 100 mg/kg, route po; conditions: in vivo
RKO [23] = test: Inhibition of NF-kappaB signalling pathway in human RKO cells assessed as decrease in phosphorylated NF-kappaB p65 level at 3 to 9 uM incubated for 24 hrs by Western blot analysis; type: cell-based; conditions: dose 3-9 µM
RKO [24] = test: Induction of apoptosis in human RKO cells assessed as necrotic cells at 9 uM incubated for 24 hr by Annexin-V-FITC/PI staining based flow cytometry (Rvb= 0.30%); type: functional
HT-29 [25] = test: Inhibition of NF-kappaB signalling pathway in human HT-29 cells assessed as decrease in phosphorylated IkappaB level at 2 to 8 uM incubated for 24 hrs by Western blot analysis; type: cell-based; conditions: dose 2-8 µM
RKO [26] = test: Induction of apoptosis in human RKO cells assessed as early apoptotic cells at 3 uM incubated for 24 hr by Annexin-V-FITC/PI staining based flow cytometry (Rvb= 7.27%); type: functional
HT-29 [27] = test: Antiproliferative activity against human HT-29 cells assessed as inhibition of cell proliferation incubated for 24 to 72 hrs by MTT assay; type: functional, cell-based; conditions: time 24-72 hrs, DDE = dose-dependent effect
RKO [28] = test: Induction of apoptosis in human RKO cells assessed as late apoptotic cells at 6 uM incubated for 24 hr by Annexin-V-FITC/PI staining based flow cytometry (Rvb= 4.49%); type: functional

AUC(0-t) at 24 h [3]: 24800 ng·h/mL
inhibition [5]: 53.2%
Tmax [7]: 3.67 h
half-life [16]: 532 min
Cmax [22]: 2000 ng/mL
SMILES: Cc1c(Cl)cccc1Nc1ccccc1C(=O)Nc1ccc(N2CCNCC2)cc1
viability at 4 µM (HT-29 [1]): 80%
Activity (RKO [2]): Active
inhibition (HT-29 [4]): Active
Activity (HT-29 [6]): Active
Activity (RKO [8]): Dde
inhibition in vivo at 15 mg/kg (HT-29 [9]): 40.7%
Activity (RKO [10]): 11.2%
Activity (HT-29 [11]): 1.49%
Activity (RKO [12]): Active
Activity (HT-29 [13]): 3.96%
Activity (RKO [14]): 22.7%
Activity (RKO [15]): Active
Activity (HT-29 [17]): 1.06%
Inhibition_index (HT-29 [18]): 6
Activity (RKO [19]): 0.73%
Activity (HT-29 [20]): Active
Activity (HT-29 [21]): Active
inhibition (RKO [23]): Active
Activity (RKO [24]): 0.59%
inhibition (HT-29 [25]): Active
Activity (RKO [26]): 6.88%
Activity (HT-29 [27]): Dde
Activity (RKO [28]): 6.88%
